Data: patent publication US11161815B2, “Hydrocarbylsulfonyl-substituted pyridines and their use in the treatment of cancer” (Oblique Therapeutics AB, priority 2017, dated 2021)

Key:
[1] = biological target: recombinant thioredoxin reductase 1 (TrxR1) (Homo sapiens (Human), UniProt Q16881); test: Inhibition of recombinant TrxR1 (DTNB assay); assay type: biochemical; details: 30 nM TrxR1, 250 μM NADPH, 15 minutes incubation, read-out: TrxR Assay IC50
Description: (§1) Small molecule inhibition of recombinant thioredoxin reductase 1 (TrxR1) and gluthathione reductase (GR) was examined in 96-well plate format. 30 nM TrxR1 was incubated in the presence of 250 μM NADPH, 0.1 mg/ml BSA, and various concentrations of compound (1% DMSO final) in 50 mM Tris (pH 7.5) and 2 mM EDTA buffer for 15 minutes. Following the incubation period, 2 mM DTNB was added to each well and the change in O.D. at 412 nm was followed. Percent activity was determined using DMSO vehicle and no TrxR1 (blank) controls. 2 nM GR was incubated in the presence of 250 μM NADPH, 0.1 mg/ml BSA, and various concentrations of compounds (1% DMSO final) in 50 mM Tris (pH 7.5) and 2 mM EDTA buffer for 15 minutes. Following the incubation period, 1 mM GSSG was added to each well and the change in O.D. at 340 nm was followed. Percent activity was determined using DMSO vehicle and no GR (blank) controls.

[2] = biological target: gluthathione reductase (GR) (Homo sapiens (Human), UniProt P00390); test: Inhibition of recombinant GR (GSSG assay); assay type: biochemical; details: 2 nM GR, 250 μM NADPH, 15 minutes incubation
Description: as §1

FaDu cells = test: Head and neck cancer cell viability assay (Cell-Quanti Blue); assay type: cell-based; details: Homo sapiens, 72 hrs, 10% FBS media containing 25 nM selenite
Description: (§2) FaDu cells were plated 2000 cells/well in 96-well black optical plates in the presence of 10% FBS media containing 25 nM selenite. The following day cells were treated with various concentrations of the compound of Example 1 (0.1% DMSO final) and incubated for 72 hrs. After the incubation Cell-Quanti Blue reagent was added to each well and incubated for additional 3 hrs. Fluorescence was read ex:530 nm/em:590 nm, and percent of viability was determined using DMSO vehicle and no cell (blank) controls.

MDA-MB-231 cells = test: Breast cancer cell viability assay (Alamar Blue); assay type: cell-based; details: Homo sapiens, 72 hrs, 10% FBS media containing 25 nM selenite
Description: as §2, with “MDA-MB-231” for “FaDu”, “compounds” for “the compound of Example 1”, “Alamar” for “Cell-Quanti”

U-87 MG = test: Cancer cell viability assay (MTT), U-87 MG; assay type: cell-based; details: Homo sapiens, 72 hrs, 10% FBS media
Description: (§3) Breast cancer and glioblastoma cell lines were plated 4000 cells/well in 96-well plates in the presence of 10% FBS media. The following day cells were treated with various concentrations of the example compounds (0.1% DMSO final) and incubated for 72 hrs. After the incubation An MTT assay was performed to access cell viability. Percent of viability was determined using DMSO vehicle and no cell (blank) controls.

MDA-MB-231 = test: Cancer cell viability assay (MTT), MDA-MB-231; assay type: cell-based; details: Homo sapiens, 72 hrs, 10% FBS media
Description: as §3

MDA-MB-468 = test: Cancer cell viability assay (MTT), MDA-MB-468; assay type: cell-based; details: Homo sapiens, 72 hrs, 10% FBS media
Description: as §3

Chain of gluthathione reductase (GR) (P00390 44-522): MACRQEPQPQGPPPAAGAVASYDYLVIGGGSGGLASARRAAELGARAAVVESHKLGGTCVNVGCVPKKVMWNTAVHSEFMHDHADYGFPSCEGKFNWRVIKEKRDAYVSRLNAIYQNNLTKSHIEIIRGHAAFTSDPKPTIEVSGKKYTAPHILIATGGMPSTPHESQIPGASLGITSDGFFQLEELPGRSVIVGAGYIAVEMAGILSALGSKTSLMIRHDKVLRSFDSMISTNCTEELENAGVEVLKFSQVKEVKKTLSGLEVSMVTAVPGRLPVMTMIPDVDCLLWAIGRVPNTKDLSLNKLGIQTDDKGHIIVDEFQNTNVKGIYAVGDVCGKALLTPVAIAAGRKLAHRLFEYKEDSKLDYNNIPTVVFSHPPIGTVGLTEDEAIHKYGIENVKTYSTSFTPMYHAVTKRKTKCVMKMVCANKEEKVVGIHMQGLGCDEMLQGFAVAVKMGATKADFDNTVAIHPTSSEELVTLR
Chain of recombinant thioredoxin reductase 1 (TrxR1) (Q16881 151-649): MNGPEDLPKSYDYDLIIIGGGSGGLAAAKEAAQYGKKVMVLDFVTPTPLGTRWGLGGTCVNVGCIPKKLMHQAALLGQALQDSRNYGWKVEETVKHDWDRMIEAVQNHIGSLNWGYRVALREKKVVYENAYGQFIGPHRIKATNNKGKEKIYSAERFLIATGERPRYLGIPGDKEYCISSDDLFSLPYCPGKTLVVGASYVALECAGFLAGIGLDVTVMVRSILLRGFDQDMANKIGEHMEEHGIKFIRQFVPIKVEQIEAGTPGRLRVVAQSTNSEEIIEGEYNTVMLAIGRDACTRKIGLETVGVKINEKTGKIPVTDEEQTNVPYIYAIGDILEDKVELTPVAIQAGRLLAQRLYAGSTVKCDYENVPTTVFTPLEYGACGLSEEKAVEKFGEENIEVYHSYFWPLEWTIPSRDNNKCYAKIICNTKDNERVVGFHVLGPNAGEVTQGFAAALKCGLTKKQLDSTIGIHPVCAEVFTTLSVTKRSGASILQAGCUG

Compound: COc1ccc([N+](=O)[O-])c(S(=O)(=O)C2CCCC2)n1 [Example 2, 2-Cyclopentylsulfonyl-6-methoxy-3-nitropyridine]
- IC50 [1]: 1.03 µM
- IC50 [2]: > 100 µM
- IC50 (FaDu cells): 3.65 µM

Compound: CCCCCCS(=O)(=O)c1nc(OC)ccc1[N+](=O)[O-] [Example 3, 2-Hexylsulfonyl-6-methoxy-3-nitropyridine]
- IC50 [1]: 0.489 µM
- IC50 [2]: > 100 µM
- IC50 (FaDu cells): 0.45 µM

Compound: O=[N+]([O-])c1ccc(Cl)nc1S(=O)(=O)Cc1ccccc1 [Example 4, 2-Benzylsulfonyl-6-chloro-3-nitropyridine]
- IC50 [1]: 0.0392 µM
- IC50 [2]: 18.1 µM
- IC50 (FaDu cells): 0.66 µM

Compound: O=[N+]([O-])c1ccc(Cl)nc1S(=O)(=O)C1CCCC1 [Example 5, 6-Chloro-2-(cyclopentylsulfonyl)-3-nitropyridine]
- IC50 [1]: 0.181 µM
- IC50 [2]: 60.5 µM
- IC50 (FaDu cells): 1.01 µM

Compound: CN(C)c1ccc([N+](=O)[O-])c(S(=O)(=O)Cc2ccccc2)n1 [Example 7, 2-Benzylsulfonyl-6-dimethylamino-3-nitropyridine]
- IC50 (FaDu cells): 2.88 µM

Compound: CCS(=O)(=O)c1nc(OC)ccc1[N+](=O)[O-] [Example 10, 2-(ethylsulfonyl)-6-methoxy-3-nitropyridine]
- IC50 [1]: 0.124 µM
- IC50 [2]: > 100 µM
- IC50 (MDA-MB-231 cells): 2.95 µM
- IC50 (U-87 MG): 5.95 µM
- IC50 (MDA-MB-231): 5.12 µM
- IC50 (MDA-MB-468): 3.16 µM

Compound: COc1ccc([N+](=O)[O-])c(S(=O)(=O)C(C)C)n1 [Example 11, 2-(isopropylsulfonyl)-6-methoxy-3-nitropyridine]
- IC50 [1]: 0.204 µM
- IC50 [2]: > 100 µM
- IC50 (U-87 MG): 6 µM
- IC50 (MDA-MB-231): 7.1 µM
- IC50 (MDA-MB-468): 4.9 µM

Compound: CCCCCCCCS(=O)(=O)c1nc(OC)ccc1[N+](=O)[O-] [Example 12, 6-methoxy-3-nitro-2-(octylsulfonyl)pyridine]
- IC50 [1]: 0.0123 µM
- IC50 [2]: > 100 µM
- IC50 (MDA-MB-231 cells): 4.51 µM

Compound: COc1ccc([N+](=O)[O-])c(S(=O)(=O)C2CC2)n1 [Example 13, 2-(cyclopropylsulfonyl)-6-methoxy-3-nitropyridine]
- IC50 [1]: 0.16 µM
- IC50 [2]: > 100 µM
- IC50 (U-87 MG): 6.92 µM
- IC50 (MDA-MB-231): 5.91 µM
- IC50 (MDA-MB-468): 4.68 µM

Compound: COc1ccc([N+](=O)[O-])c(S(=O)(=O)CCCCC(F)(F)F)n1 [Example 14, 6-methoxy-3-nitro-2-((5,5,5-trifluoropentyl)sulfonyl)pyridine]
- IC50 [1]: 0.0969 µM
- IC50 [2]: > 100 µM
- IC50 (MDA-MB-231 cells): 5.6 µM
- IC50 (U-87 MG): 7.52 µM
- IC50 (MDA-MB-231): 7.73 µM
- IC50 (MDA-MB-468): 3.88 µM

Compound: COc1ccc([N+](=O)[O-])c(S(=O)(=O)CCNC(C)=O)n1 [Example 15, N-(2-((6-methoxy-3-nitropyridin-2-yl)sulfonyl)ethyl)acetamide]
- IC50 [1]: 0.122 µM
- IC50 [2]: > 100 µM
- IC50 (MDA-MB-231 cells): 11.4 µM
- IC50 (U-87 MG): 16.3 µM
- IC50 (MDA-MB-231): 18.4 µM
- IC50 (MDA-MB-468): 5.47 µM

Compound: COC(=O)CCS(=O)(=O)c1nc(OC)ccc1[N+](=O)[O-] [Example 16, methyl 3-((6-methoxy-3-nitropyridin-2-yl)sulfonyl)propanoate]
- IC50 [1]: 0.0606 µM
- IC50 [2]: > 100 µM
- IC50 (MDA-MB-231 cells): 8.09 µM
- IC50 (U-87 MG): 5.23 µM
- IC50 (MDA-MB-231): 4.9 µM
- IC50 (MDA-MB-468): 3.9 µM

Compound: COc1ccc([N+](=O)[O-])c(S(=O)(=O)CCCO)n1 [Example 17, 3-((6-methoxy-3-nitropyridin-2-yl)sulfonyl)propan-1-ol]
- IC50 [1]: 0.103 µM
- IC50 [2]: > 100 µM
- IC50 (MDA-MB-231 cells): 12.5 µM
- IC50 (U-87 MG): 19.5 µM
- IC50 (MDA-MB-231): > 33 µM
- IC50 (MDA-MB-468): 9.77 µM

Compound: COc1ccc([N+](=O)[O-])c(S(=O)(=O)CCN2CCCCC2)n1 [Example 18, 6-methoxy-3-nitro-2-((2-(piperidin-1-yl)ethyl)sulfonyl)pyridine]
- IC50 [1]: 0.00152 µM
- IC50 [2]: > 100 µM

Compound: COc1ccc([N+](=O)[O-])c(S(=O)(=O)Cc2ccccc2Cl)n1 [Example 19, 2-((2-chlorobenzyl)sulfonyl)-6-methoxy-3-nitropyridine]
- IC50 [1]: 0.0076 µM
- IC50 [2]: > 100 µM
- IC50 (MDA-MB-231 cells): 1.8 µM

Compound: COc1ccc([N+](=O)[O-])c(S(=O)(=O)Cc2cccc(Cl)c2)n1 [Example 20, 2-((3-chlorobenzyl)sulfonyl)-6-methoxy-3-nitropyridine]
- IC50 [1]: 0.00716 µM
- IC50 [2]: > 100 µM
- IC50 (MDA-MB-231 cells): 3.2 µM

Compound: COc1ccc([N+](=O)[O-])c(S(=O)(=O)Cc2ccc(Cl)cc2)n1 [Example 21, 2-((4-chlorobenzyl)sulfonyl)-6-methoxy-3-nitropyridine]
- IC50 [1]: 0.00435 µM
- IC50 [2]: > 100 µM
- IC50 (MDA-MB-231 cells): 4.1 µM

Compound: COc1ccc([N+](=O)[O-])c(S(=O)(=O)Cc2ccc(F)cc2)n1 [Example 22, 2-((4-fluorobenzyl)sulfonyl)-6-methoxy-3-nitropyridine]
- IC50 [1]: 0.00505 µM
- IC50 [2]: > 100 µM
- IC50 (MDA-MB-231 cells): 1.85 µM

Compound: COc1ccc([N+](=O)[O-])c(S(=O)(=O)Cc2ccc(C)cc2)n1 [Example 23, 6-methoxy-2-((4-methylbenzyl)sulfonyl)-3-nitropyridine]
- IC50 [1]: 0.0145 µM
- IC50 [2]: > 100 µM

Compound: COc1ccc(CS(=O)(=O)c2nc(OC)ccc2[N+](=O)[O-])cc1 [Example 24, 6-methoxy-2-((4-methoxybenzyl)sulfonyl)-3-nitropyridine]
- IC50 [1]: 0.0253 µM
- IC50 [2]: > 100 µM
- IC50 (MDA-MB-231 cells): 3.5 µM

Compound: COc1ccc([N+](=O)[O-])c(S(=O)(=O)Cc2ccc(OC(F)(F)F)cc2)n1 [Example 25, 6-methoxy-3-nitro-2-((4-(trifluoromethoxy)benzyl)sulfonyl)pyridine]
- IC50 [1]: 0.00103 µM
- IC50 [2]: > 100 µM

Compound: COc1ccc([N+](=O)[O-])c(S(=O)(=O)CCc2ccccc2)n1 [Example 26, 6-methoxy-3-nitro-2-(phenethylsulfonyl)pyridine]
- IC50 [1]: 0.0188 µM
- IC50 [2]: > 100 µM
- IC50 (MDA-MB-231 cells): 5.22 µM

Compound: COc1ccc([N+](=O)[O-])c(S(=O)(=O)CCCc2ccccc2)n1 [Example 27, 6-methoxy-3-nitro-2-((3-phenylpropyl)sulfonyl)pyridine]
- IC50 [1]: 0.00733 µM
- IC50 [2]: > 100 µM
- IC50 (MDA-MB-231 cells): 7.13 µM

Compound: COc1ccc([N+](=O)[O-])c(S(=O)(=O)CCOc2ccccc2)n1 [Example 28, 6-methoxy-3-nitro-2-((2-phenoxyethyl)sulfonyl)pyridine]
- IC50 [1]: 0.0203 µM
- IC50 [2]: > 100 µM
- IC50 (MDA-MB-231 cells): 5.24 µM

Compound: COc1ccc([N+](=O)[O-])c(S(=O)(=O)Cc2ccco2)n1 [Example 29, 2-((furan-2-ylmethyl)sulfonyl)-6-methoxy-3-nitropyridine]
- IC50 [1]: 0.00678 µM
- IC50 [2]: > 100 µM
- IC50 (MDA-MB-231 cells): 4.36 µM

Compound: COc1ccc([N+](=O)[O-])c(S(=O)(=O)CCc2cnccn2)n1 [Example 30, 2-(2-((6-methoxy-3-nitropyridin-2-yl)sulfonyl)ethyl)pyrazine]
- IC50 [1]: 0.0669 µM
- IC50 [2]: > 100 µM
- IC50 (MDA-MB-231 cells): 2.66 µM

Compound: CC[S+]([O-])c1nc(OC)ccc1[N+](=O)[O-] (stereo not shown) [Example 31, 2-Ethanesulfinyl-6-methoxy-3-nitro-pyridine]
- IC50 [1]: 0.131 µM
- IC50 [2]: > 100 µM
- IC50 (U-87 MG): 6.22 µM
- IC50 (MDA-MB-231): 3.51 µM
- IC50 (MDA-MB-468): 3.23 µM

Compound: COc1ccc([N+](=O)[O-])c([S+]([O-])Cc2ccccc2)n1 (stereo not shown) [Example 32, 2-benzylsulfinyl-6-methoxy-3-nitro-pyridine]
- IC50 [1]: 0.0765 µM
- IC50 (U-87 MG): 2.48 µM
- IC50 (MDA-MB-231): 1.42 µM
- IC50 (MDA-MB-468): 0.64 µM

Compound: CCCCCCCC[S+]([O-])c1nc(OC)ccc1[N+](=O)[O-] (stereo not shown) [Example 33, 6-Methoxy-3-nitro-2-octylsulfinyl-pyridine]
- IC50 [1]: 0.5 µM
- IC50 [2]: 85.4 µM
- IC50 (U-87 MG): 9.25 µM
- IC50 (MDA-MB-231): 3.84 µM
- IC50 (MDA-MB-468): 1.85 µM
